According to paper PMC10615177 (ACS infectious diseases, 2023):
In brackets after ≈: the same amount, converted by molar mass. Where two headings read alike, the source gives them in different places.

Tests used:
[1] = DSC of DSPG bilayers with inhibitor; assay type: physicochemical
M. tuberculosis H37Rv = M. tuberculosis H37Rv growth inhibition; assay type: cell-based, Mycobacterium tuberculosis; conditions: for MIC: Mycobacterium tuberculosis, H37RV, read-out: Mtb H37Rv MIC
[2] = tested on: M. abscessus rough variant; assay: microbe, parasite or virus in culture; assay type: cell-based
U2OS host cells = assay: U2OS host cell growth inhibition; conditions: read-out: T. cruzi CC50 (U20S)
E. coli = E. coli growth inhibition; assay type: cell-based, Escherichia coli
M. tuberculosis HN878 = M. tuberculosis HN878 growth inhibition; assay type: cell-based, Mycobacterium tuberculosis; conditions: for MIC: HN878, read-out: Mtb HN878 MIC
M. tuberculosis Erdman = M. tuberculosis Erdman growth inhibition; assay type: cell-based, Mycobacterium tuberculosis; conditions: for MIC: Mycobacterium tuberculosis, ERDMAN, read-out: Mtb Erdman MIC
Bacillus subtilis = assay: B. subtilis growth inhibition; assay type: cell-based; conditions: read-out: Bs IC50
[3] = tested on: T. cruzi Dm28c intracellular amastigotes; assay: T. cruzi intracellular amastigote inhibition; assay type: cell-based, Trypanosoma cruzi; conditions: read-out: T. cruzi IC50 (PAR)
[4] = target: M. tuberculosis MmpL3 (MtMmpL3) (Mycobacterium tuberculosis, UniProt P9WJV5); assay: Surface plasmon resonance binding to MmpL3
[5] = tested on: T. brucei bloodstream forms; assay: T. brucei bloodstream form growth inhibition; assay type: cell-based, Trypanosoma brucei; conditions: read-out: T. brucei IC50
[6] = DSC of DMPC bilayers with inhibitor; assay type: physicochemical
M. smegmatis = M. smegmatis cell growth inhibition; assay type: cell-based, Mycobacterium smegmatis
[7] = tested on: L. donovani promastigotes; assay: L. donovani promastigote growth inhibition; assay type: cell-based, Leishmania donovani; conditions: read-out: L. donovani IC50
[8] = tested on: T. cruzi Dm28c epimastigotes; assay: T. cruzi epimastigote growth inhibition; assay type: cell-based, Trypanosoma cruzi; conditions: read-out: T. cruzi IC50 (EPI)
[9] = tested on: M. abscessus smooth variant; assay: microbe, parasite or virus in culture; assay type: cell-based
in vitro [10] = conditions: human
in vitro [11] = conditions: human; remark: listed apart in the source
[12] = tested on: L. mexicana promastigotes; assay: L. mexicana promastigote growth inhibition; assay type: cell-based, Leishmania mexicana; conditions: Leishmania mexicana, read-out: L. mexicana IC50, promastigotes
[13] = tested on: Plasmodium falciparum asexual blood stages; assay: P. falciparum asexual blood stage; assay type: cell-based; conditions: Plasmodium falciparum, read-out: PfABS IC50 (μM ± S.E.), asexual blood stages
[14] = 10 wt % inhibitor, PBS pH 7.4, heating
[15] = read-out: KD, 1:1 model, 1:1 binding model, from ratio of rate constants
[16] = read-out: KD, 2-state, two-state model, from rate constants
[17] = read-out: Ms IC50, M. smegmatis
[18] = Mycobacterium tuberculosis, HN878, read-out: Mtb HN878 IC50, dose-response curves
[19] = Mycolicibacterium smegmatis, read-out: Ms IC50, M. smegmatis
[20] = KD, 1:1 model, 1:1 binding model, from ratio of rate constants
[21] = KD, 2-state, two-state model, from rate constants

Sequence of M. tuberculosis MmpL3 (MtMmpL3) (P9WJV5 whole entry): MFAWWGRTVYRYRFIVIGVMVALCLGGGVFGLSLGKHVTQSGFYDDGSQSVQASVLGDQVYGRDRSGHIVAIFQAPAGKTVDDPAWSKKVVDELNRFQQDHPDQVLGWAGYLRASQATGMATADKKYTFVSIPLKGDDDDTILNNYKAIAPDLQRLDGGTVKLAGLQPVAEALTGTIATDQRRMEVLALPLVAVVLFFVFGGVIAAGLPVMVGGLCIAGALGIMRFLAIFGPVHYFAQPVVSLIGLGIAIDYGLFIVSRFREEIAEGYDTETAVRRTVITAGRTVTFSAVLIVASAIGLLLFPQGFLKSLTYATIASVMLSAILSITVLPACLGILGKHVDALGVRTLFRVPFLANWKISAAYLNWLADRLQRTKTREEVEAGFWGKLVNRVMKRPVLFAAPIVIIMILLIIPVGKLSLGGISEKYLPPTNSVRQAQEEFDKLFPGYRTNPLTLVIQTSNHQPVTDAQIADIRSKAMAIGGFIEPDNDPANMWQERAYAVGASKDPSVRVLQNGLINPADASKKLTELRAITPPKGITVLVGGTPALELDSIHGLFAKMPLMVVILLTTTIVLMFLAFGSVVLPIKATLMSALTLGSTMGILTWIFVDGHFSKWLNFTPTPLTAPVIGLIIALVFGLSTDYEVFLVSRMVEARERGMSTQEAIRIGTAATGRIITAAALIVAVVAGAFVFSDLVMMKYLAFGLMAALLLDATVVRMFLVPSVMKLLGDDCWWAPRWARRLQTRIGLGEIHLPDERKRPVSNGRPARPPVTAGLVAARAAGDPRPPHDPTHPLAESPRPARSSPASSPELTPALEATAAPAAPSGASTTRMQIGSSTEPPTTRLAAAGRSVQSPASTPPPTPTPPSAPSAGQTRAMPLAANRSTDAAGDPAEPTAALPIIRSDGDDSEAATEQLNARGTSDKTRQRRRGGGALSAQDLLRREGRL

CCCCCCC1(NCCNCC=C(C)CCC=C(C)C)C2CC3CC(C2)CC1C3 (stereo not drawn) [Compound 8f, N-(3,7-dimethylocta-2,6-dien-1-yl)-N´-(2-hexyladamantan-2-yl)ethane-1,2-diamine]
Tm (main transition) [1, 14]: 49.1 °C
ΔH [1, 14]: 8.75 kcal/mol
ΔT1/2 [1, 14]: 1.7 °C
Broadening of main transition peak ΔΤ1/2 compared to pure DSPG ([1]; heating): 0.2–1.6 °C
Decrease of Tm compared to DSPG alone ([1]; heating): ~ 5 °C
Mtb H37Rv MIC (M. tuberculosis H37Rv): 12 µM
Ma(R) MIC [2]: 12 µM
CC50 (U2OS host cells): 4.1 ± 1 µM
IC50 (E. coli; read-out: Ec IC50): 9.2 µM
IC50 (M. tuberculosis HN878; read-out: Mtb HN878 IC50, dose-response curves): 3.4 ± 0.6 µM
Mtb HN878 MIC (M. tuberculosis HN878; visual inspection): 3 µM
Mtb Erdman MIC (M. tuberculosis Erdman): 12 µM
IC50 (Bacillus subtilis): 1 µM
IC50 ([3]; intracellular amastigotes in U2OS host cells): 1.3 ± 0.07 µM
koff ([4]; 1:1 Langmuir binding model): 0.2964 s⁻¹
Kd [4, 15]: 67 µM
Kd [4, 16]: 81 µM
ka1 ([4]; two-state model): 4642 M⁻¹ s⁻¹
ka2 ([4]; two-state model): 0.008637 s⁻¹
kd1 ([4]; two-state model): 0.4552 s⁻¹
kd2 ([4]; two-state model): 0.03992 s⁻¹
IC50 ([5]; bloodstream forms): 0.98 ± 0.09 µM
Tm (main transition) [6, 14]: 13.8 °C
ΔH [6, 14]: 5.88 kcal/mol
ΔT1/2 [6, 14]: 5.1 °C
Broadening of main transition peak ΔΤ1/2 compared to pure DMPC ([6]; heating): 4.4 °C
Decrease of Tm compared to DMPC without inhibitor ([6]; heating): ~9.7 °C
IC50 (M. smegmatis; [17]): 4.7 µM
IC50 ([7]; promastigotes): 8.8 ± 0.4 µM
IC50 ([8]; epimastigotes): 8.2 ± 0.4 µM
Ma(S) MIC [9]: 12 µM

CC(C)=CCCC(C)=CCNCCNC1(c2ncc(-c3ccccc3)s2)C2CC3CC(C2)CC1C3 (stereo not drawn) [Compound 8i, N-(3,7-dimethylocta-2,6-dien-1-yl)-N´-(2-(5-phenylthiazol-2-yl)adamantan-2-yl)ethane-1,2-diamine]
Ma(R) MIC [2]: 21.5 µM
koff ([4]; 1:1 Langmuir binding model): 0.4902 s⁻¹
Kd [4, 15]: 87 µM
Kd [4, 16]: 91 µM
ka1 ([4]; two-state model): 3946 M⁻¹ s⁻¹
ka2 ([4]; two-state model): 0.006253 s⁻¹
kd1 ([4]; two-state model): 0.434 s⁻¹
kd2 ([4]; two-state model): 0.03057 s⁻¹
IC50 (M. smegmatis; [17]): 21 µM
Ma(S) MIC [9]: 21.5 µM

CC(C)=CCCC(C)=CCNCC(=O)NC(C)(C)C12CC3CC(CC(C3)C1)C2 [Compound 11, N-(2-(adamantan-1-yl)propan-2-yl)-2-((3,7-dimethylocta-2,6-dien-1-yl)amino)acetamide]
MIC (M. tuberculosis H37Rv): 19 µM (≈ 7.35 µg/mL)
viability at 20 µM (in vitro [10]): 100%
CC50 (in vitro [11]): 6.9 ± 0.1 µM
Ec IC50 (E. coli): No inhibition
IC50 (M. tuberculosis HN878; [18]): 13 ± 2 µM
MIC (M. tuberculosis HN878; Mycobacterium tuberculosis): 12.5 µM (≈ 4.83 µg/mL)
MIC (M. tuberculosis Erdman): 19 µM (≈ 7.35 µg/mL)
IC50 ([3]; Trypanosoma cruzi, U2OS): 4.4 ± 0.3 µM
IC50 ([5]; Trypanosoma brucei): 6.2 ± 0.2 µM
IC50 (M. smegmatis; [19]): 44 ± 4 µM
IC50 ([7]; Leishmania donovani): 5 ± 0.6 µM
IC50 ([8]; Trypanosoma cruzi): 16 ± 4 µM
IC50 [12]: 5.2 ± 0.2 µM
IC50 [13]: 7.63 ± 1.13 µM

CC(C)=CCCC(C)=CCNC(=O)CNC1(C)C2CC3CC(C2)CC1C3 (stereo not drawn) [Compound 14b, N-(3,7-dimethylocta-2,6-dien-1-yl)-2-((2-methyl-2-adamantanyl)amino)acetamide]
MIC (M. tuberculosis H37Rv): 30 µM (≈ 10.8 µg/mL)
viability at 20 µM (in vitro [10]): 94%
CC50 (in vitro [11]): 7.2 ± 0.9 µM
Ec IC50 (E. coli): No inhibition
IC50 (M. tuberculosis HN878; [18]): 4.9 ± 0.1 µM
MIC (M. tuberculosis HN878; Mycobacterium tuberculosis): 6.25 µM (≈ 2.24 µg/mL)
MIC (M. tuberculosis Erdman): 20 µM (≈ 7.17 µg/mL)
IC50 ([3]; Trypanosoma cruzi, U2OS): 2.3 ± 0.2 µM
koff [4]: 0.751 s⁻¹
kon [4]: 1760 M⁻¹ s⁻¹
Kd [4, 20]: 426 µM
Kd [4, 21]: 531 µM
ka1 ([4]; two-state model): 1917 M⁻¹ s⁻¹
ka2 ([4]; two-state model): 0.009268 s⁻¹
kd1 ([4]; two-state model): 1.363 s⁻¹
kd2 ([4]; two-state model): 0.02741 s⁻¹
IC50 ([5]; Trypanosoma brucei): 6.6 ± 0.03 µM
IC50 (M. smegmatis; [19]): 9 µM
IC50 ([7]; Leishmania donovani): 11 ± 0.9 µM
IC50 ([8]; Trypanosoma cruzi): 18 ± 4 µM
IC50 [12]: 2.4 ± 0.7 µM
IC50 [13]: 6.47 ± 0.65 µM

CCCC1(NCC(=O)NCC=C(C)CCC=C(C)C)C2CC3CC(C2)CC1C3 (stereo not drawn) [Compound 14d, N-(3,7-dimethylocta-2,6-dien-1-yl)-2-((2-propyladamantan-2-yl)amino)acetamide]
MIC (M. tuberculosis H37Rv): 32 µM (≈ 12.4 µg/mL)
viability at 20 µM (in vitro [10]): 100%
CC50 (in vitro [11]): 9.1 ± 0.4 µM
Ec IC50 (E. coli): No inhibition
IC50 (M. tuberculosis HN878; [18]): > 25 µM
MIC (M. tuberculosis HN878; Mycobacterium tuberculosis): 25 µM (≈ 9.67 µg/mL)
MIC (M. tuberculosis Erdman): 32 µM (≈ 12.4 µg/mL)
IC50 ([3]; Trypanosoma cruzi, U2OS): 2.8 ± 0.3 µM
koff [4]: 0.754 s⁻¹
kon [4]: 3000 M⁻¹ s⁻¹
Kd [4, 20]: 252 µM
Kd [4, 21]: 267 µM
ka1 ([4]; two-state model): 3277 M⁻¹ s⁻¹
ka2 ([4]; two-state model): 0.005907 s⁻¹
kd1 ([4]; two-state model): 1.04 s⁻¹
kd2 ([4]; two-state model): 0.03103 s⁻¹
IC50 ([5]; Trypanosoma brucei): 2.3 ± 0.1 µM
IC50 (M. smegmatis; [19]): 49 ± 5 µM
IC50 ([7]; Leishmania donovani): 8.4 ± 2 µM
IC50 ([8]; Trypanosoma cruzi): 14 ± 5 µM
IC50 [12]: 0.73 ± 0.2 µM
IC50 [13]: 5.27 ± 0.41 µM

CC(C)=CCCC(C)=CCNC(=O)CNC(C)(C)C12CC3CC(CC(C3)C1)C2 [Compound 15, 2-((2-(Adamantan-1-yl)propan-2-yl)amino)-N-(3,7-dimethylocta-2,6-dien-1-yl)acetamide]
MIC (M. tuberculosis H37Rv): 38 µM (≈ 14.7 µg/mL)
viability at 2 µM (in vitro [10]): 91%
viability at 20 µM (in vitro [10]): 76%
CC50 (in vitro [11]): 7.1 ± 0.5 µM
Ec IC50 (E. coli): No inhibition
IC50 (M. tuberculosis HN878; [18]): 17 ± 6 µM
MIC (M. tuberculosis HN878; Mycobacterium tuberculosis): 12.5 µM (≈ 4.83 µg/mL)
MIC (M. tuberculosis Erdman): 38 µM (≈ 14.7 µg/mL)
IC50 ([3]; Trypanosoma cruzi, U2OS): 2.6 ± 0.1 µM
IC50 ([5]; Trypanosoma brucei): 5.9 ± 0.1 µM
IC50 (M. smegmatis; [19]): 31 ± 3 µM
IC50 ([7]; Leishmania donovani): 12 ± 8 µM
IC50 ([8]; Trypanosoma cruzi): 15 ± 3 µM
IC50 [12]: 5 ± 0.1 µM
IC50 [13]: 5.44 ± 0.32 µM
